From patent US9545119B2, “Specific vanillyl lignans and use thereof as taste improvers” (SYMRISE AG, priority 2011, dated 2017)
Marks after values point to notes of the source that are not given here.

Assays:
Format in all cases: in vivo
[1] = tested on: caffeine solution containing 500 ppm; assay: Bitterness reduction in a bitter substance solution (expert panel), caffeine; details: for Reduction in the bitterness impression: * = significant; for Bitterness impression (on scale of 1-10) b) with test substance: 25 ppm test substance + 500 ppm caffeine, scale 1 (not bitter) to 10 (extremely bitter), panel mean; for Effect on bitterness (in words): statement in the description referring to Example 1
Excerpt: (§1) In order to quantify a reduction in the bitterness impression in a sample, the bitterness of a caffeine solution containing 500 ppm was compared by a panel of experts, in each case with a sample containing 500 ppm caffeine and also the respectively given quantity of a substance to be assessed (with regard to the ability thereof to reduce bitterness), with assessment on a scale from 1 (not bitter) to 10 (extremely bitter). For the evaluation, i.e. the calculation of the reduction (in %) of the bitterness impression, in each case, the mean values of the estimates by the expert panel for the caffeine solution and the sample to be compared, which contained caffeine and a substance under assessment were used. In addition to caffeine, other bitter substances such as theobromine, naringin, quinine hydrochloride dihydrate and salicin were tested using the same method.

100 ppm naringin = assay: Bitterness reduction in a bitter substance solution (expert panel), naringin; details: for Reduction in the bitterness impression: 25 ppm test substance + 100 ppm naringin vs naringin alone, * = significant; for Bitterness impression (on scale of 1-10) b) with test substance: 25 ppm test substance + 100 ppm naringin, scale 1-10
Excerpt: as §1

[2] = tested on: 5 ppm quinine hydrochloride dihydrate; assay: Bitterness reduction in a bitter substance solution (expert panel), quinine hydrochloride dihydrate
Excerpt: as §1

300 ppm theobromine = assay: Bitterness reduction in a bitter substance solution (expert panel), theobromine; details: for Reduction in the bitterness impression: 25 ppm test substance + 300 ppm theobromine vs theobromine alone; for Bitterness impression (on scale of 1-10) b) with test substance: 25 ppm test substance + 300 ppm theobromine, scale 1-10
Excerpt: as §1

250 ppm salicin = assay: Bitterness reduction in a bitter substance solution (expert panel), salicin
Excerpt: as §1

[3] = tested on: 750 ppm epigallocatechin gallate (EGCG); assay: Bitterness and astringency reduction in a bitter substance solution over time (expert panel); details: 100 ppm test substance + 750 ppm EGCG; time 0 s
[4] = tested on: 750 ppm epigallocatechin gallate (EGCG); assay: as above; details: 100 ppm test substance + 750 ppm EGCG
Excerpt: In order to quantify the reduction in the bitterness or astringency impression in a sample over a particular period of time, the bitterness or astringency of a solution containing 750 ppm epigallocatechin gallate (EGCG) was compared by a panel of experts, in each case with a sample containing 750 ppm epigallocatechin gallate and also the respectively shown quantity of a substance to be assessed (with regard to the ability thereof to reduce bitterness and/or astringency), in this case matairesinol (Compound 1-(−)).
Assessment was carried out on a scale from 1 (not bitter) to 10 (extremely bitter) or 1 (not astringent) to 10 (extremely astringent). The assessment by the panelists was carried out at specified time points (10 seconds, 30 seconds, 50 seconds and 70 seconds after ingestion of the respective sample). The samples were assessed by the panellists one after another following neutralisation. For the evaluation, i.e. the calculation of the reduction (in %) of the bitterness impression or astringency impression, at each time point, the mean values of the estimates by the expert panel for the epigallocatechin gallate solution and the sample to be compared therewith which contained the epigallocatechin gallate and the substance under assessment (in this case: matairesinol (Compound 1-(−)) were used.

[5] = 25 ppm test substance + 500 ppm caffeine vs 500 ppm caffeine alone

COc1cc(C2c3cc(O)c(OC)cc3CC(CO)C2CO)ccc1O (single isomer, unassigned; (+)) [(+)-isolariciresinol (5-(+)), 1,2,3,4-tetrahydro-7-hydroxy-1-(4-hydroxy-3-methoxy-phenyl)-6-methoxy-2,3-naphthalenedimethanol]
Reduction in the bitterness impression [1, 5]: 10.3%
Bitterness impression (on scale of 1-10) b) with test substance [1]: 4.1 ± 2.21

COc1cc(C[C@H]2CO[C@H](c3ccc(O)c(OC)c3)[C@H]2CO)ccc1O [(+)-lariciresinol (3-(+)), 4-[[(3R,4R,5S)-5-(4-hydroxy-3-methoxyphenyl)-4-(hydroxy-methyl)-oxolan-3-yl]methyl]-2-methoxyphenol]
Reduction in the bitterness impression (100 ppm naringin): 39.5%*
Bitterness impression (on scale of 1-10) b) with test substance (100 ppm naringin): 3.6 ± 1.75
Reduction in the bitterness impression [1, 5]: 38.6%*
Bitterness impression (on scale of 1-10) b) with test substance [1]: 2.9 ± 1.41
Reduction in the bitterness impression ([2]; 25 ppm test substance + 5 ppm quinine hydrochloride dihydrate vs quinine alone, * = significant): 30.9%*
Bitterness impression (on scale of 1-10) b) with test substance ([2]; 25 ppm test substance + 5 ppm quinine hydrochloride dihydrate, scale 1-10): 2.5 ± 1.02
Reduction in the bitterness impression (300 ppm theobromine): 10.7%
Bitterness impression (on scale of 1-10) b) with test substance (300 ppm theobromine): 3.7 ± 2.24
Reduction in the bitterness impression (250 ppm salicin; 25 ppm test substance + 250 ppm salicin vs salicin alone): 17.1%
Bitterness impression (on scale of 1-10) b) with test substance (250 ppm salicin; 25 ppm test substance + 250 ppm salicin, scale 1-10): 5.7 ± 2.97

COc1cc(C[C@H]2C(=O)OC[C@@H]2Cc2ccc(OC)c(OC)c2)ccc1O [(−)-arctigenin (4), (3R,4R)-4-[(3,4-dimethoxyphenyl)methyl]-3-[(4-hydroxy-3-methoxy-phenyl)methyl]oxolan-2-one]
Reduction in the bitterness impression [1, 5]: 11.5%
Bitterness impression (on scale of 1-10) b) with test substance [1]: 2.8 ± 1.68

COc1cc(C[C@H]2C(=O)OC[C@@H]2[C@H](O)c2ccc(O)c(OC)c2)ccc1O [(−)-hydroxymatairesinol(2-(−)), (3R,4R)-4-[(S)-hydroxy-(4-hydroxy-3-methoxy-phenyl)methyl]-3-[(4-hydroxy-3-methoxyphenyl)methyl]oxolan-2-one]
Reduction in the bitterness impression [1, 5]: 41.9%*
Bitterness impression (on scale of 1-10) b) with test substance [1]: 2.6 ± 1.72

COc1cc(C[C@H]2COC(=O)[C@@H]2Cc2ccc(O)c(OC)c2)ccc1O [(−)-matairesinol (1-(−)), (3R,4R)-3,4-bis[(4-hydroxy-3-methoxyphenyl)methyl]oxolan-2-one]
Reduction in the bitterness impression (100 ppm naringin): 15.1%
Bitterness impression (on scale of 1-10) b) with test substance (100 ppm naringin): 4.9 ± 2.38
Reduction in the bitterness impression [1, 5]: 35.5%*
Bitterness impression (on scale of 1-10) b) with test substance [1]: 2.7 ± 1.77
Reduction in the bitterness impression (300 ppm theobromine): 24.7%
Bitterness impression (on scale of 1-10) b) with test substance (300 ppm theobromine): 3.4 ± 1.49
% Reduction in the astringency impression [3]: −11%
% reduction in the bitterness impression [3]: −15%
% Reduction in the astringency impression ([4]; time 10 s): −10%*
% reduction in the bitterness impression ([4]; time 10 s): −30%*
% Reduction in the astringency impression ([4]; time 30 s): −15%
% reduction in the bitterness impression ([4]; time 30 s): −38%*
% Reduction in the astringency impression ([4]; time 50 s): −20%
% reduction in the bitterness impression ([4]; time 50 s): −33%*
% Reduction in the astringency impression ([4]; time 70 s): −23%
% reduction in the bitterness impression ([4]; time 70 s): −28%

COc1cc([C@@H]2c3cc(O)c(OC)cc3C[C@H]3C(=O)OC[C@@H]23)ccc1O [(−)-α-conidendrin (6-(−)), (3aR,9R,9aS)-7-hydroxy-9-(4-hydroxy-3-methoxyphenyl)-6-methoxy-3a,4,9,9a-tetrahydro-1H-benzo[f][2]benzofuran-3-one]
Reduction in the bitterness impression [1, 5]: 20.8%
Bitterness impression (on scale of 1-10) b) with test substance [1]: 2.5 ± 0.94

COc1cc(C[C@@H](CO)[C@H](CO)Cc2ccc(O)c(OC)c2)ccc1O [secoisolariciresinol, reference compound]
Amplification of the bitterness impression (printed in column Reduction in the bitterness impression) ([1]; 25 ppm test substance + 500 ppm caffeine vs 500 ppm caffeine alone, comparative example): 34%
Bitterness impression (on scale of 1-10) b) with test substance [1]: 5.2 ± 2.6
Effect on bitterness (in words) [1]: amplifies the bitterness
Effect on bitterness (in words) ([1]; listed as Secoisolariciresinol): capable of amplifying bitter taste impressions
